Here are results for two compounds from article PMC10229426, “An optimized bioluminescent substrate for non-invasive imaging in the brain” (Nature Chemical Biology, 2023).

As usually defined, the Km is the concentration of substrate that gives half-maximal velocity.

A short description of data set [1]: In vivo substrate pharmacokinetics (plasma and brain). As to conditions: for concentration at 5 min: male, C57BL/6, mouse, brain, ip, 5 min after i.p. 1.3 µmol, wild-type mice. Set-up: species or system C57BL/6 mice. As to the method:
PK measurements were performed at Shanghai ChemPartner for Fz and compound 6 in 6- to 8-week-old overnight-fasted male C57BL/6 mice. Fz and compound 6 were formulated as clear solutions in 10% ethanol, 10% glycerol, 10% hydroxypropyl-β-cyclodextrin (Sigma-Aldrich), 35% PEG-300 and 35% water. Freshly prepared injectable doses (i.p., 20 mg per kg body weight for Fz and 21.6 mg per kg body weight for compound 6) were administered at 20 ml kg^–1. Each of the two measurement series consisted of four mice and two time points (series 1, predose and 0.083 h; series 2, 0.083 h and 0.167 h).
At each time point, ~90 µl of blood was collected into a K2EDTA tube via facial vein bleeding. Plasma samples were put on ice and centrifuged to obtain plasma samples (2,000g for 5 min at 4 °C) within 15 min of collection. The plasma samples were stored at –70 °C until analysis. For analysis, 20 µl of plasma sample was added to 20 µl of stabilizer (80:20 (vol:vol) mixture of 200 mg ml^–1 EDTA and 100 mM L-ascorbic acid in water).
At the terminal point of each series, a midline incision was made in the animal’s scalp, and the skin was retracted. The skull overlying the brain was removed. The whole brain was collected, rinsed with cold saline, dried on filtrate paper, weighed and snap-frozen by placing it into dry ice. No abnormal symptoms were observed during the studies. The brain samples were homogenized with 4 ml of stabilizer (80:20 (vol:vol) mixture of 200 mg ml^–1 EDTA and 100 mM L-ascorbic acid in water) per gram of tissue. The above samples (plasma or brain) were mixed with 120 µl of internal standard (Glipizide, 100 ng ml^–1) in acetonitrile. […] Compound concentrations were quantified using LC–MS/MS detection. […]
PK parameters were determined by the non-compartmental model of the non-compartmental analysis tool, Pharsight Phoenix WinNonlin 8.2 software. […] When the number of detected time points after Tmax was less than 3, the terminal half-life and the area under the plasma concentration-time curve from zero to infinity were not calculated.

Data set [2] is described as follows: Solubility in aqueous formulation with poloxamer-407 (P-407). The class given is physicochemical. Here is the method: Stock samples of solid formulated Fz analogs were prepared using the following protocol. First, P-407 (Pluronic F127) was placed into a screw-cap glass vial. The polymer was then heated to 75 °C in a water bath until melted. Fz analogs dissolved in ethanol were added to the hot polymer, mixing well with a thin spatula. Additional rinses of Fz analogs in ethanol were added to the hot polymer for quantitative transfer. The solvent was then removed under vacuum. This concentrated sample was diluted with water to make a dispensing mixture of 4–9 mM Fz analogs in water. Next, this aqueous stock was aliquoted into glass vials, frozen and lyophilized overnight to give a yellow cake. For i.p. injection into mice, DPBS (Corning, 21-031-CV) was added to the vial and rocked to create a clear solution.

Data set [3] has as its target Antares (Oplophorus gracilirostris, UniProt Q9GV45, A31E/A60N/A81I/F95D/I117V/K70R/L54V/L99Q/M102K/N193R/P142E/Q151K/Q38R/Q45L/V71I/Y165I). The experiment in a line: Enzymatic analysis of Antares and Fz analogs. The format is biochemical. Set-up: His tag (inferred from purification on HisLink resin); made in house; host or cells: Escherichia coli. The note with it: for Relative kcat: relative to Fz. As to the method: Two milliliters of LB broth with 100 µg ml^–1 ampicillin was inoculated with a single colony of clone ATG-3802 (Antares codon optimized for Escherichia coli) and grown overnight at 37 °C. On the following day, the overnight culture was diluted 1:100 into a flask containing 50 ml of Terrific Broth and 100 µg ml^–1 ampicillin. The sample was grown at 37 °C with shaking (275 r.p.m.) for 4 h. The culture was chilled on ice, and 1% rhamnose was added to induce protein expression. The culture was placed in a 15 °C shaker (275 r.p.m.) and grown for 48 h. Cells were collected by centrifugation and resuspended in 10 ml of 100 mM HEPES (pH 7.5), 150 mM NaCl, 10 mM imidazole and 1 mg ml^–1 lysozyme. The resuspended cells were sonicated on ice (5 s on, 5 s off for 2 min, 12 amplitude). The sample was centrifuged (12,000g for 15 min), and 1 ml of HisLink resin (Promega) was added to the cleared lysate. Samples were incubated at 4 °C on an orbital mixer for 2 h. After incubation, the resin was washed three times with HisLink wash buffer (Promega). After the final wash, the sample was eluted (incubated 3 min with mixing) two times with 1 ml of HisLink elution buffer (Promega). The sample was dialyzed (10-kDa molecular weight cutoff, Thermo Fisher Slide-A-Lyzer) for 24 h in TBS and 50% glycerol.
To quantify luminescence as a function of substrate concentration, substrates were diluted to 30 μM and serially diluted in twofold steps into DPBS with 0.01% BSA in triplicate. Fifty microliters of each substrate dilution was then mixed with 50 μl of a solution of 20 pM Antares protein in DPBS with 0.01% BSA. Luminescence was measured immediately using a GloMax-Multi+ luminometer (Promega). Km and Vmax were then calculated using the Michaelis–Menten non-linear regression function in the program Prism (GraphPad).

Antares, sequence (Q9GV45 other isoform, or with tags, fused parts or gaps with the stated changes): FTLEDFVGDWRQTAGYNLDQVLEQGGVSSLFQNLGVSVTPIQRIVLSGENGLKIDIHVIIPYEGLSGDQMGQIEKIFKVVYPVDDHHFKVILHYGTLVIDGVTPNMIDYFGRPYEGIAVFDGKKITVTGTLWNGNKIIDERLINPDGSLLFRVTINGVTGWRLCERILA

In data set [1], `O=c1c(Cc2ccco2)nc2c(Cc3ccccc3)[nH]c(-c3ccccc3)cn1-2` [Fz, furimazine, reference compound] returned a concentration at 5 min of 1100 nM. The “solubility of 1.3 μmol in P-407 formulation” value in data set [2] (1.3 μmol) is “not soluble in P-407”. In data set [3], the Michaelis constant (Km) stood at 0.38 µM and the Relative kcat was determined as 1.0.
As for `O=c1c(Cc2ccco2)nc2c(Cc3ccccc3)[nH]c(-c3cccc(F)c3F)cn1-2` [compound 6, cephalofurimazine], in data set [1] (i.p. 1.3 µmol, plasma at 5 and 10 min, vs Fz), the “bioavailability from plasma concentrations” value is “improved bioavailability after i.p. injection”. Moreover, the concentration at 5 min in data set [1] was found to be 1400 nM. In addition, the “solubilization of 4.2 µmol in P-407 formulation” value in data set [2] (4.2 µmol) was “a small amount of CFz residue already remained with 20 mg of P-407 but not 30 mg”. For the same compound, in data set [3], the Michaelis-Menten constant (Km) worked out at 0.47 µM and the Relative kcat stood at 1.33.
